Assay results from patent US20120252721A1 (priority 2011, published 2012).

What was measured:
[1] = tested on: HCV genotype 3a NS5A within the 1b-replicon; experiment: Luciferase replicon assay, NS5A-intergenotypic stable cell line genotype 3a; type: cell-based; details: Hepatitis C virus, read-out: EC50 3a
Text: (§1) The nucleotide sequences of the NS5A region of genotype 2a (GenBank Accession # AB047639), genotype 3a (GenBank Accession #D17763), and genotype 4a (GenBank Accession# DQ418788) were synthesized by an outside vendor. The NS5A region of each of these genotypes included the first 11 amino acids of the protease recognition sequence of genotype 1b, as well as the last 10 amino acids of genotype 1b. The NS5A gene cassettes were excised with site specific restriction endonucleases and ligated into a ZS11-luciferase genotype 1b backbone (backbone contains the genotype 1b NS3 protease, NS4a, NS4b, and NS5b coding regions) with similarly cut restriction enzyme sites. Thus, the newly constructed plasmid contains a genotype 2a-, 3a- or 4a-specific NS5A gene within the 1b-replicon.
(§2) These new intergenotypic plasmids were used to establish stable cell lines. RNA was generated from the NS5A intergenotypic plasmids and used in conjunction with a lipofectin reagent to transfect a cured Huh7 cell line. Transfected cells were selected for with G418. After selection has occurred the stable cell lines were propagated, tested for luciferase activity, and RT-PCR with genotype specific primers (either 1a, 2a, 3a, or 4a). Stable cell lines containing the intergenotypic replicon were then fully sequenced and analyzed for proper expression of NS3, NS5A and NS5B proteins.
(§3) Drug titration analysis was performed using the luciferase replicon assay described herein.
(§4) The HCV luciferase replicon assay measures the ability of a test compound to inhibit HCV replication in cell culture after 3 days of treatment in a human hepatoma cell line (Huh-7) bearing an HCV replicon containing a luciferase-neomycin phosphotransferase fusion gene. The inhibition of HCV replication was measured by quantification of luciferase protein expression. Briefly, Huh-7 cells containing either the HCV genotype 1a H77 strain or genotype 1b Con1 strain subgenomic luciferase replicon (H1a-luc or Zluc, respectively) were grown in DMEM containing glucose, L-glutamine and sodium pyruvate, 10% fetal bovine serum (FBS), 100 IU/mL penicillin, 100 μg/mL streptomycin, 2 mM GlutaMAX, non-essential amino acids and 0.25 (H1a-luc) or 0.5 (Zluc) mg/mL G418. GlutaMAX was obtained from Invitrogen, Corp.; all other media reagents were obtained from Mediatech, Inc. For dose-response testing, the cells were seeded in 96-well plates at 1×10^4 (H1a-luc) or 7.5×10^3 (Zluc) cells/well in a volume of 50 μL, and incubated at 37° C./5% CO2. Three hours after plating, 50 μL of ten 5-fold serial dilutions of compound were added, and cell cultures were incubated at 37° C./5% CO2 for 72 hours. In all cases, Huh-7 cells lacking the HCV replicon served as negative control. To assess luciferase expression, the media/compound was removed from the plates and ONE-glo Luciferase assay reagent (Promega) was added to each well. The assay plates were shaken for 3 minutes at room temperature and luciferase activity for each well was measured with a 1 sec read time on the Victor^3V multilabel counter using a 700 nm cut-off filter (Perkin Elmer). EC50 values were calculated from dose response curves from the resulting best-fit equations determined by Microsoft Excel and XLfit 4.1 software.

[2] = tested on: HCV genotype 4a NS5A within the 1b-replicon; experiment: Luciferase replicon assay, NS5A-intergenotypic stable cell line genotype 4a; type: cell-based; details: Hepatitis C virus, read-out: EC50 4a
Text: as §1, §2, §3, §4

[3] = tested on: HCV genotype 1b replicon, NS5B M414T; experiment: Luciferase replicon transient transfection assay, genotype 1b NS5B M414T; type: cell-based, hepatitis C virus
Description: The luciferase replicon transient transfection assay measures the ability of a test compound to inhibit the replication of a transiently-transfected HCV luciferase-bearing wild-type or mutant replicon in cured human hepatoma cells (Huh7.5). The inhibition of HCV replication was measured by quantification of luciferase protein expression. This assay has been validated using a panel of genotype 1a and 1b replicons bearing mutations known to be associated with resistance to BMS-790052. Briefly, subconfluent Huh7.5 cells were electroporated with 10 μg of wild-type or mutant luciferase-bearing HCV replicon RNA. The cells were then seeded in 96-well opaque white plates at 3×10^4 cells/well in 150 μL/well and incubated for 4 hrs at 37° C./5% CO2. […] The plates were agitated on a rotating platform at room temperature for 3 min and read in a Victor^3V microplate reader (Perkin-Elmer) using a 700 nm cut-off filter with a 1 sec read time. EC50 values were calculated from dose response curves from the resulting best-fit equations determined by Microsoft Excel and XLfit 4.1 software.
To determine the replication capacity of each mutant relative to the wild-type parental replicon, transfected cells were plated on two plates and were not treated with compound. Luciferase activity was measured at time points of 4 hrs and 4 days after plating for each replicon. […]

## COC(=O)N[C@H](C(=O)N1CCC[C@H]1c1ncc(-c2ccc(-c3csc4c(-c5cnc([C@@H]6CCCN6C(=O)[C@@H](NC(=O)OC)C(C)C)[nH]5)csc34)cc2)[nH]1)C(C)C [Compound A15, [(S)-1-((S)-2-{4-[4-(6-{2-[(S)-1-((S)-2-methoxycarbonylamino-3-methyl-butyryl)-pyrrolidin-2-yl]-3H-imidazol-4-yl}-thieno[3,2-b]thiophen-3-yl)-phenyl]-1H-imidazol-2-yl}-pyrrolidine-1-carbonyl)-2-methyl-propyl]-carbamic acid methyl ester]
[1]
  EC50: 100 to 1000 pM
[2]
  EC50: < 100 pM

## COC(=O)N[C@H](C(=O)N1CCC[C@H]1c1nc2cc(-c3csc4c(-c5ccc(-c6cnc([C@@H]7CCCN7C(=O)[C@H](NC(=O)OC)c7ccccc7)[nH]6)cc5)csc34)ccc2[nH]1)C(C)C [Compound A169, [(S)-1-((S)-2-{6-[6-(4-{(S)-2-[1-((R)-2-methoxycarbonylamino-2-phenyl-acetyl)-pyrrolidin-2-yl]-3H-imidazol-4-yl}-phenyl)-thieno[3,2-b]thiophen-3-yl]-1H-benzoimidazol-2-yl}-pyrrolidine-1-carbonyl)-2-methyl-propyl]-carbamic acid methyl ester]
[3]; Hepatitis C virus, genotype 1b, NS5B mutation M414T (confers resistance to Benzothiadiazine)
  EC50: 1.8 pM
[3]; {}
  Ratio: 1.05
